“Also recorded” adds a separate entry of the source.
Tests used:
[1] = test system: CD45+ immune system cells; assay: FACS analysis of colon CD45+ immune system cells after colitis induction; format: in vivo, mouse; conditions: fisetin vs control after colitis induction, FIGS. 14A-C
Protocol: Colon segment was flushed with cold PBS, longitudinally cut open and rinsed to remove residual luminal contents. Tissue was cut into 3- to 5-mm pieces and incubated in HBSS medium containing EDTA 0.5 M and Hepes 10 mM at 37° C. for 20 minutes, shaken at 180 rpm, to separate epithelial fraction. Supernatant was centrifuged at 4° C. at 500 g for 10 minutes. Recovered tissue was digested in HBSS medium with 2% fetal bovine serum (FBS), 0.05% collagenase II and 0.05% DNase I (Sigma) for 40 minutes. at 37° C., shaken at 180 rpm. LP cells were filtered through 65 μm mesh and centrifuged at 4° C. at 500 g for 10 minutes. The present inventors prepared single cell suspensions from mouse colon by enzymatic digestion and analyzed by polychromatic flow cytometry. […] Data were acquired on an LSRII (BD Biosciences) or FACSCalibur instrument (Becton-Dickinson) with CellQuest software, with a MacsQuant instrument (Miltenyi, Bergisch Gladbach, Germany), and analyzed using BD FACSDiva 6 or FlowJo software (version 7.6.5, or version vX.0.7 Tree Star Inc) or MacsQuant. […] After staining for cell surface antigens, intracellular NO was detected by incubation of cells for 15 min at 37° C. with 10 μM DAF-FM diacetate followed by extensive washing, according to the manufacturer's instructions (Molecular Probes). […]

[2] = test system: As1; assay: Immunohistochemistry staining of distal colon sections for As1; format: in vivo, mouse; conditions: after colitis induction, vs control mice with colitis, FIG. 3E, 4A
Protocol: Four micrometer paraffin embedded tissue sections were deparaffinized and rehydrated. Endogenous peroxidase was blocked with three percent H2O2 in methanol. Sections undergoing for ALS staining were incubated in cold acetone at −20° C. for 7 minutes. For F4/80 and MAC-2 staining, the present inventors performed antigen retrieval in Tris-EDTA pH 9 and 10 mM citric acid pH 6, for 10 minutes, respectively, using a low boiling program in the microwave to break protein cross-links and unmask antigens. After pre-incubation with 20% normal horse serum and 0.2% Triton X-100 for 1 hour at RT (root temperature), sections were incubated with the primary antibodies as follow; ASL (1:100, Abcam, ab97370, CA, USA); F4/80 (1:50, Serotec, Kidllington, UK); Mac-2 (1:400, Cedarlane, N.C., USA). For fluorescent double-staining of ASL and CD11c the mouse anti ASL (1:50 Santa Cruz Biotechnology, Inc. sc-166787, TX, USA) and rabbit anti CD11c (1:50, ab52632) were used. All antibodies were diluted in PBS containing 2% normal horse serum and 0.2% Triton. Sections were incubated overnight at RT followed by 48 hours at 4° C. Sections were washed three times in PBS and incubated with secondary biotinylated IgG at RT (room temperature) for 1.5 hour, washed three times in PBS and incubated with avidin-biotin Complex (Elite-ABC kit, Vector Lab, CA, USA) at RT for additional 90 minutes followed by DAB (Sigma) reaction. For the fluorescent staining the CY2 conjugated anti mouse and CY3 conjugated streptavidin (1:100 and 1:200 respectively, Jackson ImmunoResearch, West Grove, Pa.) were used.

[3] = test system: C57BL/6J.OlaaHsd mice; assay: DSS-induced colitis, treatment with arginine, citrulline, NaNO2, fisetin or citrulline plus fisetin; format: in vivo, mouse; conditions: day 12; fisetin, citrulline or both vs DMSO control; FIG. 4C
[4] = test system: lipopolysaccharide (LPS)-stimulated mouse primary peritoneal macrophages; conditions: in vitro; cited from earlier work

Compound: O=c1c(O)c(-c2ccc(O)c(O)c2)oc2cc(O)ccc12 [fisetin, 3,7, 3′, 4′-tetrahydroxyflavone]
- As1 levels [1]: decrease
- iNOS levels [1]: not in the intestinal immune cells; also recorded: decrease
- As1 expression in distal colon sections (intestine, enterocytes) [2]: up regulation
- As1 expression in distal colon sections (intestine, enterocytes) ([2]; listed as fesitin): upregulated
- endoscopic colitis score [3]: significant improvement
- pro-inflammatory cytokine [4]: significantly reduces pro-inflammatory cytokine
